According to US20190070165A1, “N-HYDROXYISOQUINOLINEDIONE INHIBITORS OF HBV REPLICATION” (Saint Louis University, priority 2016, published 2019):
Read-outs that look alike come from different tables or passages of the source.

What was measured:
HBV replication [1] = test: HBV replication inhibition assay in HepDES19 cells (strand-preferential q-PCR); type: cell-based, Hepatitis B virus; details: Hepatitis B virus
Protocol: HBV replication assay. […] Cells were seeded into 6-well plates and incubated in DMEM/F12, 10% fetal bovine serum (FBS), 1% penicillin/streptomycin (P/S) with 1 μg/mL tetracycline. Tetracycline was withdrawn after 24 hours. The test compound was applied to duplicate wells 48 hours later in medium containing a final DMSO concentration of 1%, and medium containing the compound was refreshed daily for the following two days. Cells were harvested and non-encapsidated nucleic acids were digested with micrococcal nuclease (New England Biolabs). HBV DNA was purified from capsids using QIAamp Cador Pathogen Mini Kit (Qiagen) with proteinase K incubation overnight at 37° C. TaqMan PCR was performed for 40 cycles at an annealing temperature of 60° C.
Thirty-nine HID, HPD, flutimide, and related POH compounds (Structures shown in FIG. 3) were screened for their ability to inhibit HBV replication in HepDES19 cells. […] Inhibition was calculated as the amount of plus-polarity DNA relative to the DMSO treated controls.
Briefly, HepDES19 were seeded in 12-well plates at 2×10^5 cells per well in the absence of tetracycline. Test compound was applied to cells 48 hours after removal of tetracycline. […] HBV DNA was purified from capsids using a QIAamp pathogen minikit with proteinase K digestion extended to overnight at 37° C. TaqMan PCR was performed for 40 cycles with an annealing temperature of 60° C.

HBV replication [2] = test: Chou-Talalay synergy analysis with Lamivudine against HBV replication; details: CI <1.0 indicates synergy
Protocol: Chou-Talaly analysis yields a combination index (CI). CI values <1.0 indicate synergy, CIs of approximately 1.0 indicate additive interactions, and CI values >1.0 indicate antagonism. CI values are calculated at various efficacy levels (EC50, EC75, EC90, and EC95), and a weighted CI value favoring higher efficacy levels is also generated.

HBV RNaseH [3] = target: T1, HBV RNaseH (Hepatitis B virus genotype D subtype ayw, UniProt P03156); test: Molecular beacon RNaseH assay; details: for Inhibition of HBV RNaseH, Molecular Beacon cleavage assay: Table 3, 0 to 500 μM
Target sequence in this assay (P03156 671-832): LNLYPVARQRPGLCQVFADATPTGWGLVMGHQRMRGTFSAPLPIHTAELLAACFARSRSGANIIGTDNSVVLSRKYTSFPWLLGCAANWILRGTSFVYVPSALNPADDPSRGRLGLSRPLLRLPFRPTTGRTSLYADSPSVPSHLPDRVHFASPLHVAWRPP
Protocol: In this assay, a hairpin DNA oligonucleotide labeled with fluorescein on one end and a quencher on the other is held in a linear conformation by annealing to a complementary RNA; cleavage of the RNA causes the DNA to fold into a hairpin, suppressing fluorescence (FIG. 8A).
The substrate is a hairpin DNA oligonucleotide with a 5′ fluorescein reporter and a 3′ black hole quencher annealed to a complementary RNA oligonucleotide. The reaction was initiated by adding 5 mM Mg^++, and fluorescence was monitored at 37° C. with a Synergy 4 96-well plate reader. Inhibition was qualitatively determined as a dose-dependent reduction in the rate of substrate degradation.

HBV RNaseH [4] = target: T1, HBV RNaseH; details: Table 3, compounds at 100, 60 and 20 μM; compounds 1-91 and 138-140 previously reported (Cai et al., 2014)
Target sequence in this assay (P03156 671-832): as above

[5] = system: patient-derived RNAseH enzymes; test: Biochemical RNAseH assay with variant patient-derived RNAseH enzymes; design: species or system Hepatitis B virus; details: compounds at their respective IC50 values, four genotype D enzymes
Protocol: HBV has 8 genotypes differing in sequence by 8%. Genetic diversity in the RNAseH domain is about 6%, which is easily high enough to modulate viral sensitivity to RNAseH inhibitors. […] Twelve purified, patient-derived RNAseH enzymes (4 from each genotypes B, C and D) were tested with the compounds at their respective IC50 values in a biochemical RNAseH assay. […] Equivalent results were obtained for all 12 enzymes against compounds #1 and #46. Therefore, HBV's high genetic variation is unlikely to present a substantial barrier to drug development.

HSV-1 = HSV-1 replication inhibition assay in Vero cells; type: cell-based, herpes simplex virus 1; details: Human alphaherpesvirus 1, 24 h; 5 μM, Vero cells; read-out: HSV-1 suppression (log10 at 5 μM), class symbol
Protocol: Thirty-seven compounds were counter-screened for efficacy against HSV-1 to evaluate specificity of the inhibitors and to help determine if the efficacy against HBV replication may be due to an unsuspected indirect effect on the cells. Vero cells infected with HSV-1 at an MOI of 0.1 were treated with 5 μM of compound for 24 hours. Inhibition was calculated as log 10 suppression of plaque forming units compared with DMSO vehicle control.
Vero cells were maintained DMEM supplemented with 3% newborn calf serum, 3% bovine growth serum, 2 mM L-glutamine, and P/S. Test compounds were applied to the cells in the presence of 0.05% DMSO. The herpes simplex virus 1 (HSV-1) strain used for screening was a de-identified clinical isolate from the Saint Louis University Hospital passaged once in culture.
Compounds and virus were diluted in phosphate buffered saline (PBS) containing 2% newborn calf serum and 2 mM L-glutamine so that the final concentration of compound was 5 μM. The cells were incubated at 37° C. for 1 hour with the virus containing inoculum, then the inoculum was removed and the wells were washed once in PBS. Compound diluted to 5 μM in supplemented DMEM was added and cells were incubated at 37° C. for an additional 23 hours. The plates were then microscopically inspected for cytopathic effect (CPE) or toxicity and then frozen at −80° C. Virus titers for wells with limited CPE compared to DMSO vehicle-treated controls were then determined by plaque assay on Vero cells. Each experiment was repeated at least once.

[6] = Neutral red (NR) cytotoxicity assay; type: cell-based; details: human, HepDES19 cells, read-out: Toxicity in HepDES19, NR (CC50)
Protocol: (§1) To further evaluate potential cytotoxicity of these hits, the effect of the compounds was determined for the uptake of neutral red (NR) by the lysosomes and lactate dehydrogenase (LDH) release into the supernatant due to cell membrane permeability. […] Overall, the TI values in Table 3 and FIG. 4 indicate that cytotoxicity was not the cause of antiviral efficacy, although it may have contributed to the apparent efficacy for #84, 85, 90, and 91, which all have TI values below 5.

MTT cytotoxicity assay = type: cell-based; details: human; Table 2, HepDES19 cells
Protocol: MTT cytotoxicity assays. 1.0×10^4 HepDES19 cells per well were seeded in 96-well plates and incubated in DMEM with 10% FBS plus 1% P/S, 1% non-essential amino acids, and 1% glutamine. Compounds were diluted in medium to the indicated concentrations plus 1% DMSO and added to cells 24 hours after plating, with each concentration tested in triplicate. Medium containing the compound was refreshed daily for the next two days. Thiazolyl blue tetrazolium bromide (MTT, Sigma-Aldrich) was added to 0.25 mg/mL, the cultures were incubated for 60 minutes, metabolites were solubilized in acidic isopropanol, and absorbance was read at 570 nm.

[7] = Lactate dehydrogenase (LDH) release cytotoxicity assay; type: cell-based; details: human, HepDES19 cells, read-out: Toxicity in HepDES19, LDH (CC50)
Protocol: as §1

[8] = MTS cytotoxicity assay (CellTiter 96); details: human
Protocol: (§2) HepDES19 cells were seeded at 1×10^4 cells per well in a 96 well plate in the absence of tetracycline. The test compounds were applied in triplicate to the cells 48 hours later and the cells were incubated for 72 hours. Cell viability was measured using the CellTiter 96 Aqueous Non-Radioactive Cell Proliferation Assay (Promega). [3-(4,5-dimethylthiazol-2-yl)-5-(3-carboxymethoxyphenyl)-2-(4-sulfophenyl)-2H-tetrazolium, inner salt] (MTS) and phenazine methosulfate (PMS) solution at 2 mg/mL MTS and 0.043 mg/mL PMS were added to the medium, the cells were incubated for two hours at 37° C., and absorbance was measured at 490 nm. […] Neutral red was added to the media at a final concentration of 40 μg/mL. Cells were washed with PBS and incubated with neutral red medium for two hours at 37° C. The neutral red medium was removed and the cells were washed with PBS. […] Lactate dehydrogenase (LDH) release was measured using the LDH-cytotoxicity colorimetric assay kit (BioVision). Cells were lysed with 1% Triton-X to provide the high control and DMSO vehicle treatment was the low control. Supernatants were collected and transferred to a fresh 96 well plate, and LDH reaction mixture containing the catalyst and dye solution was added. The reaction was incubated for 15-20 minutes at room temperature in a dark box and absorbance was measured at 490 nm. Percent cytotoxicity was calculated as [(test sample−low control)/([…])]×100.

HepDES19 cells = test: MTS cytotoxicity assay (CellTiter 96); details: CC50 by MTS assay over EC50
Protocol: as §2

human RNaseH1 = target: T2, human RNaseH1 (Homo sapiens, UniProt O60930); test: Oligonucleotide-directed RNA cleavage assay, human RNaseH1; type: biochemical; details: Table 1, qualitative inhibition
T2 construct: made in house; host or cells: E. coli
T2 sequence (O60930 1-286): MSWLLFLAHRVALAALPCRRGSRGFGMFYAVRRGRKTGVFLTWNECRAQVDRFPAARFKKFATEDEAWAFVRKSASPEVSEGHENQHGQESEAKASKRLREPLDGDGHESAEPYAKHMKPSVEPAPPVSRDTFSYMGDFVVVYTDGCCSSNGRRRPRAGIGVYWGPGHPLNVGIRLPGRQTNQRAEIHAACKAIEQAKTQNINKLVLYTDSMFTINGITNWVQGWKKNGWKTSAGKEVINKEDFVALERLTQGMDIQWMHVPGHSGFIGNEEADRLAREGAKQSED
From the text: RNaseH expression and purification.
Oligonucleotide-directed RNA cleavage assay.

HBV RNaseH [9] = target: T1, HBV RNaseH; test: Detection of capsid-associated RNA:DNA heteroduplexes by Southern analysis; type: cell-based; design: expressed in transfected cells; host or cells: HepDES19 (HepG2 with a stably transfected HBV genotype D genome); details: HepDES19 cells, seven days; #89 at 4×EC50 (10.4 μM), #138 at 30 μM
Protocol: RNA:DNA heteroduplexes migrate as double-stranded products, but degradation of the RNA strand with exogenous RNase causes the DNAs to migrate as single-stranded species. To test for accumulation of RNA:DNA heteroduplexes, HepDES19 cells replicating HBV were treated with 4×EC50 (10.4 μM) of compound #89 and 30 μM compound #138 (negative control). HBV cores were harvested after seven days of compound treatment. Capsid-associated nucleic acids were purified and split into two pools; one pool was treated with RNaseA and the other pool was mock treated.
HepDES19 cells were plated in 100 mm dishes without tetracycline and incubated for 72 hours in the absence of tetracycline before addition of compound #89 at 4×EC50 (10.4 μM) and the negative control compound #138 at 30 μM; compound-containing media was replaced every three days. HBV nucleic acids were purified seven days after compound addition. HBV core particles were isolated by sedimentation through a sucrose cushion as described (Tavis et al., 1998). Cores were treated overnight with proteinase K (0.5 mg/mL) and 1.5% SDS at 37° C. Nucleic acids were purified by phenol-chloroform extraction and ethanol precipitation. The nucleic acids were split into two pools. One pool was treated with RNaseA (1.5 μg/μL) at 37° C. for 30 minutes and the other was mock-treated. […]
Target sequence in this assay (P03156 whole entry): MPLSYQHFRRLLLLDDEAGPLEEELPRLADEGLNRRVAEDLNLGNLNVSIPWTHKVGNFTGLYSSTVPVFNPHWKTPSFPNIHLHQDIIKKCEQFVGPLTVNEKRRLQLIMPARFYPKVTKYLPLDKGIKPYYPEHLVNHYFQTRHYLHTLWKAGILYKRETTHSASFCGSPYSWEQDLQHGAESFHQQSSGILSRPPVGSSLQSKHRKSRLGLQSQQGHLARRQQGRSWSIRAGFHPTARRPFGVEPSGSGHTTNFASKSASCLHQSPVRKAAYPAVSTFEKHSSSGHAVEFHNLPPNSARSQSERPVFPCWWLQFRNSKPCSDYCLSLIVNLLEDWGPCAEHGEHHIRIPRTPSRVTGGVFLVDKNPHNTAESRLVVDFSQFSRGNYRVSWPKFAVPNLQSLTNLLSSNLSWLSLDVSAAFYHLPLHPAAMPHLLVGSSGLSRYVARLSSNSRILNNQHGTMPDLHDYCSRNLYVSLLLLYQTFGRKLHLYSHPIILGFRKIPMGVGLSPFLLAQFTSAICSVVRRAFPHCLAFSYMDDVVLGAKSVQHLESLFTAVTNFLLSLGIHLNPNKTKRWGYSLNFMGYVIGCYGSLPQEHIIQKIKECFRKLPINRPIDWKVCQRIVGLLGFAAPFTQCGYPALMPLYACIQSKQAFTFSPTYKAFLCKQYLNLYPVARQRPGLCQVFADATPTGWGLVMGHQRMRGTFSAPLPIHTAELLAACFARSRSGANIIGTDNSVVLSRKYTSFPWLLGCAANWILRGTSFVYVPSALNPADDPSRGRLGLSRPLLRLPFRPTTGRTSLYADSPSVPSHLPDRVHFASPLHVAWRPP

[10] = HepDES19, read-out: HBV replication inhibition (EC50, μm)

SMILES: O=C1Cc2ccccc2C(=O)N1O [Compound 1, 2-hydroxyisoquinoline-1,3(2H,4H)-dione]
- EC50 (HBV replication [1]; [10]): 4.2 ± 1.4 µM
- weighted combination index (CI) with Lamivudine (HBV replication [2]): 0.70±0.1
- inhibition in the molecular beacon assay (HBV RNaseH [3]; 2.1 μg purified HBV RNaseH): inhibited
- Inhibition of HBV RNaseH, Molecular Beacon cleavage assay (HBV RNaseH [3]): + (Dose-dependent inhibition at ≤500 μM)
- Inhibition of HBV RNaseH, Oligonucleotide directed cleavage assay (HBV RNaseH [4]): + (Dose-dependent inhibition at ≤100 μM)
- inhibition of variant genotype D RNAseH enzymes [5]: about 50%
- log reduction at 5 µM (HSV-1): < 1

SMILES: O=C(NCc1ccc(F)cc1)C1C(=O)N(O)C(=O)c2cc(Cl)ccc21 (stereo not drawn) [Compound 87]
- EC50 (HBV replication [1]; [10]): 4.5 ± 3.7 µM
- EC50 (HBV replication [1]; Table 2, HepDES19 cells, read-out: EC50): 1.6 µM
- CC50 at 72 h [6]: 24 ± 1 µM
- CC50 (MTT cytotoxicity assay): 37 µM
- Inhibition of HBV RNaseH, Molecular Beacon cleavage assay (HBV RNaseH [3]): − (No inhibition detected at 500 μM)
- CC50 at 72 h [7]: 52 ± 15 µM
- CC50 at 72 h [8]: 37 ± 17 µM
- TI (therapeutic index, CC50(MTS)/EC50) (HepDES19 cells): 8.2
- Inhibition of HBV RNaseH, Oligonucleotide directed cleavage assay (HBV RNaseH [4]): − (No inhibition detected at 100 μM)
- Human RNaseH1 (human RNaseH1): +++ (detectable inhibition at 10 μM)
- log reduction at 5 µM (HSV-1): < 1

SMILES: COc1ccc(CNC(=O)C2C(=O)N(O)C(=O)c3cc([N+](=O)[O-])ccc32)cc1 (stereo not drawn) [Compound 89]
- EC50 (HBV replication [1]; [10]): 2.6 ± 0.8 µM
- accumulation of RNA:DNA heteroduplexes (HBV RNaseH [9]): caused RNA:DNA heteroduplexes to accumulate
- Inhibition of HBV RNaseH, Molecular Beacon cleavage assay (HBV RNaseH [3]): − (No inhibition detected at 500 μM)
- Inhibition of HBV RNaseH, Oligonucleotide directed cleavage assay (HBV RNaseH [4]): − (No inhibition detected at 100 μM)
- Human RNaseH1 (human RNaseH1): ++ (detectable inhibition at 20 μM)
- log reduction at 5 µM (HSV-1): < 1
